Results on 45 compounds are retold here after patent US8754073B2, “Substituted piperazino-dihydrothienopyrimidines” (Boehringer Ingelheim International GmbH, priority 2007, dated 2014).

As a reminder, the inhibition is the drop in the measured response relative to a control, in per cent.

Sequence of PDE4B (Q07343 whole entry, species assumed): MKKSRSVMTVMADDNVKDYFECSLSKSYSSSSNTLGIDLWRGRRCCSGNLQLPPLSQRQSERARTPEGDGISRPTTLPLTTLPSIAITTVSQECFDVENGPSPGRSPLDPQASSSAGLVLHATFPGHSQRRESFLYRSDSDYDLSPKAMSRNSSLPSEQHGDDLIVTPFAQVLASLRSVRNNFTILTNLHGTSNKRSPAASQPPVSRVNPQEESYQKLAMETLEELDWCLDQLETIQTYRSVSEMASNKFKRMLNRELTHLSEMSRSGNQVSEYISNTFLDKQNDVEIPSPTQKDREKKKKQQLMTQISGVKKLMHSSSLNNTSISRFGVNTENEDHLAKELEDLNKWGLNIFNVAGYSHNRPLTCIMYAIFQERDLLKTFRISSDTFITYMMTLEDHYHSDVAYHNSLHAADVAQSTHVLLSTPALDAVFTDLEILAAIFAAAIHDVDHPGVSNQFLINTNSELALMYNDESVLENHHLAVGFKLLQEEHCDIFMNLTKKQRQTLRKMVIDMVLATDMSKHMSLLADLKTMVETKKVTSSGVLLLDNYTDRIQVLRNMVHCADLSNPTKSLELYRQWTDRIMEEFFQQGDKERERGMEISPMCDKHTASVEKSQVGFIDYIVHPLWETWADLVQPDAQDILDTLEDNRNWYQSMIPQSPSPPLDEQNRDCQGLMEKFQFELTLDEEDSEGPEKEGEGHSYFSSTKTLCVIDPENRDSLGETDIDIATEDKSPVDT

The target in the first assay is PDE4B (Homo sapiens, UniProt Q07343). Briefly: Scintillation Proximity Assay (SPA) of PDE4B enzyme activity ([H3]-cAMP cleavage). As to conditions: test substance 1 μM; one-hour incubation of [H3]-cAMP with PDE4B enzyme at 30° C. The format is biochemical. Put shortly:
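SPA read-out: [H3]-cAMP incubated with PDE4B in assay buffer for 1 h at 30 °C, with and without test compound at 1 μM. Reaction stopped by adding yttrium silicate beads that bind the [H3]-AMP product; after 45 min settling, scintillation counted. Value is % inhibition at 1 μM.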
A general note: In a scintillation proximity assay essentially only radioactivity close to the scintillant gives light.
`CC(C)[C@H](CO)Nc1nc(N2CCC(c3cccc(C#N)c3)CC2)nc2c1[S+]([O-])CC2` (stereo partly drawn) [Example 154]: the inhibition at 1 µM was found to be 92%.

As for `Cc1cccc(C2CCN(c3nc4c(c(NC5CCOCC5)n3)[S+]([O-])CC4)CC2)c1` (stereo not drawn) [Example 7], testing at 1 µM gave an inhibition of 93%. In the case of `[O-][S+]1CCc2nc(N3CCC(c4cccc(Cl)c4)CC3)nc(NC3CCOCC3)c21` (stereo not drawn) [Example 69], the inhibition at 1 µM amounted to 93%. For `[O-][S+]1CCc2nc(N3CCC(c4nc(-c5cccnc5)no4)CC3)nc(NC3(CO)CC3)c21` (stereo not drawn) [Example 115], the inhibition at 1 µM came to 94%.

Regarding `[O-][S+]1CCc2nc(N3CCC(c4ccc(C(F)(F)F)cc4)CC3)nc(NC3(CO)CC3)c21` (stereo not drawn) [Example 95, (1-{5-Oxo-2-[4-(4-Trifluoromethylphenyl)-Piperidin-1-Yl]-6,7-Dihydro-5H-5λ^4-Thieno[3,2-d]Pyrimidin-4-Ylamino}-Cyclopropyl)-Methanol], the inhibition at 1 µM amounted to 93%. Same read-out and setting: the figure for `[O-][S+]1CCc2nc(N3CCC(c4nc5ccccc5o4)CC3)nc(NC3CCOCC3)c21` (stereo not drawn) [Example 99, [2-(4-Benzoxazol-2-Yl-Piperidin-1-Yl)-5-Oxo-6,7-Dihydro-5H-5λ^4-Thieno[3,2-d]Pyrimidin-4-Yl]-(Tetrahydropyran-4-Yl)-Amine] is 97%; for `[O-][S+]1CCc2nc(N3CCC(c4cc5ccccc5o4)CC3)nc(NC3(CO)CC3)c21` (stereo not drawn) [Example 110] it is 97%. On the same count and under the same terms, in the case of `CCc1[nH]c2ccc(F)cc2c1C1CCN(c2nc3c(c(NC4CCOCC4)n2)[S+]([O-])CC3)CC1` (stereo not drawn) [Example 67] it was 93%; in that of `CN1C[C@@H](Nc2nc(N3CCC(c4ccc(Cl)cc4)CC3)nc3c2[S+]([O-])CC3)CCC1=O` (stereo partly drawn) [Example 5, (S)-5-{2-[4-(4-chlorophenyl)-piperidin-1-yl]-5-oxo-6,7-dihydro-5H-5λ^4-thieno[3,2-d]pyrimidin-4-ylamino}-1-methylpiperidin-2-one], 94%. `CCc1[nH]c2ccc(F)cc2c1C1CCN(c2nc3c(c(N[C@@H](CO)C(C)C)n2)[S+]([O-])CC3)CC1` (stereo partly drawn) [Example 22, (R)-2-{2-[4-(2-Ethyl-5-Fluoro-1H-Indol-3-Yl)-Piperidin-1-Yl]-5-Oxo-6,7-Dihydro-5H-5λ^4-Thieno[3,2-d]Pyrimidin-4-Ylamino}-3-Methylbutan-1-Ol]: at 1 µM the inhibition was 86%. The compound `CC(C)[C@H](CO)Nc1nc(N2CCC(c3noc4ccccc34)CC2)nc2c1[S+]([O-])CC2` (stereo partly drawn) [Example 16, (R)-2-[2-(4-Benzo[d]Isoxazol-3-Yl-Piperidin-1-Yl)-5-Oxo-6,7-Dihydro-5H-5λ^4-Thieno[3,2-d]Pyrimidin-4-Ylamino]-3-Methylbutan-1-Ol] showed an inhibition at 1 µM of 96%. Compound `[O-][S+]1CCc2nc(N3CCC(c4cccc(Cl)c4)CC3)nc(Nc3cccc(F)c3)c21` (stereo not drawn) [Example 84] came in with an inhibition at 1 µM of 95%. On the same count and under the same terms, the figure for `O=C1Nc2ccccc2C2(CCN(c3nc4c(c(NC5CCOCC5)n3)[S+]([O-])CC4)CC2)N1` (stereo not drawn) [Example 66] is 62%; for `[O-][S+]1CCc2nc(N3CCC(c4cccc(Br)c4)CC3)nc(NC3(CO)CC3)c21` (stereo not drawn) [Example 94] it is 94%; for `COc1ccc(C2CCN(c3nc4c(c(N[C@@H](CO)C(C)C)n3)[S+]([O-])CC4)CC2)cc1` (stereo partly drawn) [Example 148] it is 93%.

The compound `CN1C[C@@H](Nc2nc(N3CCC(c4ccncc4)CC3)nc3c2[S+]([O-])CC3)CCC1=O` (stereo partly drawn) [Example 48] registered an inhibition at 1 µM of 96%. Same read-out and setting: in the case of `CN1C[C@@H](Nc2nc(N3CCC(C#N)(c4ccccc4)CC3)nc3c2[S+]([O-])CC3)CCC1=O` (stereo partly drawn) [Example 55, 1-[4-((S)-1-Methyl-6-Oxopiperidin-3-Ylamino)-5-Oxo-6,7-Dihydro-5H-5λ^4-Thieno[3,2-d]Pyrimidine-2-Yl]-4-Phenylpiperidine-4-Carbonitrile] it was 96%; in that of `[O-][S+]1CCc2nc(N3CCC(c4noc5cc(F)ccc45)CC3)nc(Nc3cccc(F)c3)c21` (stereo not drawn) [Example 136], 95%.

The assay is the same for the next values; noted with them: test substance 1 μM; one-hour incubation with [H3]-cAMP at 30° C.
Regarding `CN1C[C@@H](Nc2nc(N3CCC(c4cc5ccccc5o4)CC3)nc3c2[S+]([O-])CC3)CCC1=O` (stereo partly drawn) [Example 187], at 1 µM the inhibition was 98%.

Consider `CC(C)c1ccc(OC2CCN(c3nc4c(c(N[C@H]5CCC(=O)N(C)C5)n3)[S+]([O-])CC4)CC2)cc1` (stereo partly drawn) [Example 267], for which the inhibition at 1 µM is 78%. Same read-out and setting: the figure for `[O-][S+]1CCc2nc(N3CCC(Oc4ccncc4)CC3)nc(NC3CCOCC3)c21` (stereo not drawn) [Example 268] is 80%. Same read-out and setting: the figure for `CC(C)[C@H](CO)Nc1nc(N2CCC(CNS(C)(=O)=O)(c3ccccc3)CC2)nc2c1[S+]([O-])CC2` (stereo partly drawn) [Example 326] is 88%; for `COC1(c2cc(F)cc(F)c2)CCN(c2nc3c(c(N[C@H]4CCC(=O)N(C)C4)n2)[S+]([O-])CC3)CC1` (stereo partly drawn) [Example 273, 5-{2-[4-(3,5-difluorophenyl)-4-methoxypiperidin-1-yl]-5-oxo-6,7-dihydro-5H-5λ^4-thieno[3,2-d]pyrimidin-4-ylamino}-1-methylpiperidin-2-one] it is 94%. Same read-out and setting: in the case of `Cc1cn(C)nc1CN(C)C(=O)c1ccc(C2CCN(c3nc4c(c(NC5CCOCC5)n3)[S+]([O-])CC4)CC2)cc1` (stereo not drawn) [Example 226] it was 95%; in that of `[O-][S+]1CCc2nc(N3CCC(Oc4ccc(F)cc4)CC3)nc(Nc3cccc(F)c3)c21` (stereo not drawn) [Example 165], 92%. Compound `Cc1nn(C)c(C)c1CNC(=O)c1ccc(C2CCN(c3nc4c(c(NC5CCOCC5)n3)[S+]([O-])CC4)CC2)cc1` (stereo not drawn) [Example 230] returned an inhibition at 1 µM of 81%. Same read-out and setting: in the case of `Cc1nn(C)cc1C(C)NC(=O)c1ccc(OC2CCN(c3nc4c(c(NC5CCOCC5)n3)[S+]([O-])CC4)CC2)cc1` (stereo not drawn) [Example 244] it was 95%. `O=C(c1cccc(C2CCN(c3nc4c(c(NC5CCOCC5)n3)[S+]([O-])CC4)CC2)c1)N1CCOCC1` (stereo not drawn) [Example 247] gave an inhibition at 1 µM of 90%. For the compound `[O-][S+]1CCc2nc(N3CCC(c4nnc(-c5ccccc5)o4)CC3)nc(NC3(CO)CC3)c21` (stereo not drawn) [Example 318], 1 µM produced 91% inhibition.

`CC(C)[C@H](CO)Nc1nc(N2CCC(c3cc(-c4cccs4)[nH]n3)CC2)nc2c1[S+]([O-])CC2` (stereo partly drawn) [Example 292] came in with an inhibition at 1 µM of 83%. `COC1(c2ccc(Cl)cc2)CCN(c2nc3c(c(NC4CCOCC4)n2)[S+]([O-])CC3)CC1` (stereo not drawn) [Example 313]: 1 µM produced 89% inhibition. Still for that read-out and setting: in the case of `[O-][S+]1CCc2nc(N3CCC(Oc4ccc(F)c(F)c4)CC3)nc(NC3CCOCC3)c21` (stereo not drawn) [Example 175] it was 89%.

The compound `CN(CC1(c2ccccc2)CCN(c2nc3c(c(Nc4cccc(F)c4)n2)[S+]([O-])CC3)CC1)S(C)(=O)=O` (stereo not drawn) [Example 332] showed an inhibition at 1 µM of 93%.

Take `CN1C[C@@H](Nc2nc(N3CCC(c4nc5cc(F)ccc5o4)CC3)nc3c2[S+]([O-])CC3)CCC1=O` (stereo partly drawn) [Example 195, 5-{2-[4-(5-fluorobenzoxazol-2-yl)-piperidin-1-yl]-5-oxo-6,7-dihydro-5H-5λ^4-thieno[3,2-d]pyrimidin-4-ylamino}-1-methylpiperidin-2-one]: the inhibition at 1 µM is 96%. On the same count and under the same terms, in the case of `COCC1(c2ccc(Cl)cc2)CCN(c2nc3c(c(N[C@H]4CCC(=O)N(C)C4)n2)[S+]([O-])CC3)CC1` (stereo partly drawn) [Example 260, 5-{2-[4-(4-chlorophenyl)-4-methoxymethylpiperidin-1-yl]-5-oxo-6,7-dihydro-5H-5μ^4-thieno[3,2-d]pyrimidin-4-ylamino}-1-methylpiperidin-2-one] it was 96%; in that of `CN1C[C@@H](Nc2nc(N3CCC(Oc4ccc(C5=NCCO5)cc4)CC3)nc3c2[S+]([O-])CC3)CCC1=O` (stereo partly drawn) [Example 199], 96%; in that of `[O-][S+]1CCc2nc(N3CCC(Oc4ccc5c(c4)CCNCC5)CC3)nc(NC3CCOCC3)c21` (stereo not drawn) [Example 183, (5-Oxo-2-[4-(2,3,4,5-Tetrahydro-1H-Benzo[d]Azepin-7-Yloxy)-Piperidin-1-Yl]-6,7-Dihydro-5H-5λ^4-Thieno[3,2-d]Pyrimidin-4-Yl)-(Tetrahydropyran-4-Yl)-Amine], 91%. As for `[O-][S+]1CCc2nc(N3CCC(CO)(c4ccc(Cl)cc4)CC3)nc(NC3(CO)CC3)c21` (stereo not drawn) [Example 301], the inhibition at 1 µM was found to be 92%. Still for that read-out and setting: the figure for `CN(C(=O)c1ccc(OC2CCN(c3nc4c(c(NC5CCOCC5)n3)[S+]([O-])CC4)CC2)cc1)C1CC1` (stereo not drawn) [Example 242, N-Cyclopropyl-N-Methyl-4-{1-[5-Oxo-4-(Tetrahydropyran-4-Ylamino)-6,7-Dihydro-5H-5λ^4-Thieno[3,2-d]Pyrimidin-2-Yl]-Piperidin-4-Yloxy}-Benzamide] is 94%; for `Cc1nn(C)cc1CNC(=O)c1cccc(C2CCN(c3nc4c(c(NC5CCOCC5)n3)[S+]([O-])CC4)CC2)c1` (stereo not drawn) [Example 259] it is 92%. The same measure, in the same setting: in the case of `Cn1cc(C2CCN(c3nc4c(c(NC5CCOCC5)n3)[S+]([O-])CC4)CC2)c2cc(C(C)(C)C)ccc21` (stereo not drawn) [Example 192, {2-[4-(5-tert-butyl-1-methyl-1H-indol-3-yl)-piperidin-1-yl]-5-oxo-6,7-dihydro-5H-5λ^4-thieno[3,2-d]pyrimidin-4-yl}-(tetrahydropyran-4-yl)-amine] it was 95%. On the same count and under the same terms, in the case of `COCC1(c2ccc(Cl)cc2)CCN(c2nc3c(c(Nc4cccc(F)c4)n2)[S+]([O-])CC3)CC1` (stereo not drawn) [Example 305] it was 91%. For the compound `CC(C)(NC(=O)c1ccc(OC2CCN(c3nc4c(c(NC5CCOCC5)n3)[S+]([O-])CC4)CC2)cc1)c1ccncc1` (stereo not drawn) [Example 236], the inhibition at 1 µM turned out to be 95%. Consider `O=C(c1ccc(OC2CCN(c3nc4c(c(NC5CCOCC5)n3)[S+]([O-])CC4)CC2)cc1)N1CCOCC1` (stereo not drawn) [Example 240], for which at 1 µM the inhibition was 94%.

Consider `O=C(O)c1ccc(OC2CCN(c3nc4c(c(NC5CCOCC5)n3)[S+]([O-])CC4)CC2)cc1` (stereo not drawn) [Example 184, 4-{1-[5-Oxo-4-(Tetrahydropyran-4-Ylamino)-6,7-Dihydro-5H-5λ^4-Thieno[3,2-d]Pyrimidin-2-Yl]-Piperidin-4-Yloxy}-Benzoic Acid], for which the inhibition at 1 µM is 92%.
